The values below come from patent publication US4727086A, “Certain anti-hypertensive 2,3-dihydrobenzofuran compounds” (Adir et Compagnie, priority 1985, dated 1988).

The test system of assay [1] is coronary artery of the dog. Kind of assay: Contraction-inhibiting activity on the coronary artery of the dog (in vitro). In kind it is cell-based. Particulars: Canis lupus familiaris, 0.25 h, contraction induced by 100 mM potassium ions, reactivation with 10 and 20 mM calcium ions, 15-minute action, read-out: ED50 (dose capable of inhibiting 50% of the maximum contraction). The method, then:
Assessment of the Contraction-Inhibiting Activity on the Coronary Artery of the Dog
The inhibiting activity on contraction induced by calcium ions was assessed in vitro on the coronary artery of the dog according to the method described by Godfraind and Miller in Circ. Res. (1983) 52, No. 2, pp. 81-91. Contraction was induced by a solution containing 100 millimoles of potassium ions per liter. The compounds to be examined were then introduced in cumulative doses and after a 15-minute period of action the preparation was reactivated with solutions having a calcium ion concentration of 10 and 20 mM. The dose capable of inhibiting 50% (ED50) of the maximum contraction was assessed.

Another assay has as its system mongrel dogs. Kind of assay: Haemodynamic effects in vivo in anaesthetised dogs. The method, then: Haemodynamic Effects In Vivo
The haemodynamic effects were assessed in mongrel dogs weighing from 25 to 30 kg which had been anaesthetised with sodium phenobarbital, had undergone a thoractomy at the 5th left intercostal space and carried electromagnetic rings at the level of the circumflex branch of the left coronary artery and at the level of the ascending aorta. The maximum bradycardic effect (E.B. max.), the mean coronary resistances (C.V.R.M.), the coronary output (C.B.F.M.), and the arterial pressure (P.A.) were measured after the intravenous injection of a dose of 300 μg/kg and 1000 μg/kg of the compounds of Examples 1 and 13.
Table 5 summarises the various results which are expressed as percentage increases (+%) or percentage decreases (-%) in the values in relation to those observed before treatment.

Turning to `COc1ccc2c(c1)C(CCCN(C)CCc1ccc(OC)c(OC)c1)(c1ccccc1)CO2.O=P(O)(O)O` (centres unmarked) [Example 1, 5-methoxy-3-phenyl-3-[3-(N-(3,4-dimethoxyphenethyl)-N-methylamino)-propyl]-2,3-dihydrobenzofuran phosphate], in assay [1], the IC50 was found to be 1.7 µM. Also, in the assay on mongrel dogs (300 μg/kg intravenous), the “CBFM (coronary output), % change vs before treatment” value (from here on “CBFM (coronary output), % change”) is on record as “+51%”; the “CRVM (mean coronary resistances), % change vs before treatment” value (“CRVM … % change vs before treatment” below) is -39%; the “EB max (maximum bradycardic effect), % change vs before treatment” value (“EB max … % change vs before treatment” for short) was -7%; the “PA (arterial pressure), % change vs before treatment” value (“PA (arterial pressure), % change” for short) is given as -9%. In the assay on mongrel dogs (1000 μg/kg intravenous), the “CBFM (coronary output), % change” value is “+85%”; the “CRVM … % change vs before treatment” value is reported as -57%; the “EB max … % change vs before treatment” value is reported as -13%; the “PA (arterial pressure), % change” value is on record as -21%.
With `COc1cccc(N2CCN(CCCC3(c4ccccc4)COc4ccc(Cl)cc43)CC2)c1` (centres unmarked) [Example 2, 5-chloro-3-phenyl-3-[3-(4-(3-methoxyphenyl)-1-piperazinyl)-propyl]-2,3-dihydrobenzofuran], the IC50 in assay [1] worked out at 10 µM.
On the same count and under the same terms, as for `COc1ccc(CCN(C)CCCC2(c3ccccc3)COc3cc(OC)c(OC)cc32)cc1OC` (centres unmarked) [Example 3, 5,6-dimethoxy-3-phenyl-3-[3-(N-(3,4-dimethoxyphenethyl)-N-methylamino)-propyl]-2,3-dihydrobenzofuran], the figure is 90 µM; as for `COc1ccc(CCN(C)CCCC2(c3ccccc3)COc3ccc(Cl)cc32)cc1OC` (centres unmarked) [Example 4, 5-chloro-3-phenyl-3-[3-(N-(3,4-dimethoxyphenethyl)-N-methylamino)-propyl]-2,3-dihydrobenzofuran], 30 µM; as for `COc1ccc2c(c1)C(CCCN(C)CCc1ccc(OC)c(OC)c1)(c1ccc(C)cc1)CO2` (centres unmarked) [Example 5, 5-methoxy-3-(4-methylphenyl)-3-[3-(N-(3,4-dimethoxyphenethyl)-N-methylamino)-propyl]-2,3-dihydrobenzofuran], 26 µM.
For `COc1ccc2c(c1)C(CCCN(C)C1Cc3cc(OC)c(OC)cc3C1)(c1ccccc1)CO2` (centres unmarked) [Example 6, 5-methoxy-3-phenyl-3-[3-(N-(5,6-dimethoxy-2-indanyl)-N-methylamino)-propyl]-2,3-dihydrobenzofuran], the IC50 in assay [1] amounted to 10 µM.
For the molecule `COc1ccc2c(c1)C(CCCN1CCc3cc(OC)c(OC)cc3C1)(c1ccccc1)CO2` (centres unmarked) [Example 7, 5-methoxy-3-phenyl-3-[3-(6,7-dimethoxy-1,2,3,4-tetrahydro-2-isoquinolyl)-propyl]-2,3-dihydrobenzofuran], the IC50 in assay [1] is 6.3 µM.
Same read-out and setting: as for `COc1ccc2c(c1)C(CCCN(C)CCc1ccccc1)(c1ccccc1)CO2` (centres unmarked) [Example 8, 5-methoxy-3-phenyl-3-[3-(N-phenethyl-N-methylamino)-propyl]-2,3-dihydrobenzofuran], the figure is 8.4 µM; as for `COc1ccc2c(c1)C(CCCN1CCN(C)CC1)(c1ccccc1)CO2` (centres unmarked) [Example 9, 5-methoxy-3-phenyl-3-[3-(4-methyl-1-piperazinyl)-propyl]-2,3-dihydrobenzofuran], 35 µM; as for `CCN(CC)CCCC1(c2ccccc2)COc2ccc(OC)cc21` (centres unmarked) [Example 10, 5-methoxy-3-phenyl-3-[3-(N-diethylamino)-propyl]-2,3-dihydrobenzofuran], 6.1 µM.
On the same count and under the same terms, as for `COc1ccc2c(c1)C(CCCN(C)CCc1ccc(OC)c(OC)c1)(c1ccccc1)C(O)O2` (centres unmarked) [Example 11, 2-Hydroxy-5-methoxy-3-phenyl-3-[3-(N-(3,4-dimethoxyphenethyl)-N-methylamino)-propyl]-2,3-dihydrobenzofuran phosphate], the figure is 6.2 µM; as for `COc1ccc(CCN(C)CCCC2(c3ccccc3)c3cc(OC)c(OC)cc3OC2O)cc1OC` (centres unmarked) [Example 12, 2-hydroxy-5,6-dimethoxy-3-phenyl-3-[3-(N-(3,4-dimethoxyphenethyl)-N-methylamino)-propyl]-2,3-dihydrobenzofuran phosphate], 8 µM.
For the molecule `COc1ccc(CCN(C)CCCC2(c3ccccc3)COc3ccccc32)cc1OC.O=P(O)(O)O` (centres unmarked) [Example 13, 3-phenyl-3-[3-(N-(3,4-dimethoxyphenethyl)-N-methylamino)-propyl]-2,3-dihydrobenzofuran phosphate], the IC50 in assay [1] was 4 µM. In the assay on mongrel dogs (300 μg/kg intravenous), the “CBFM (coronary output), % change” value is listed as “+31%”; the “CRVM … % change vs before treatment” value is reported as -36%; the “EB max … % change vs before treatment” value is -8%; the “PA (arterial pressure), % change” value was -16%. In addition, in the assay with mongrel dogs (1000 μg/kg intravenous), the “CBFM (coronary output), % change” value is “+59%”; the “CRVM … % change vs before treatment” value is on record as -60%; the “EB max … % change vs before treatment” value is reported as -10%; the “PA (arterial pressure), % change” value is on record as -31%.
For the molecule `c1ccc(C2(CCCN3CCc4ccsc4C3)COc3ccccc32)cc1` (centres unmarked) [Example 14, 3-phenyl-3-[3-(1,2,6,7-tetrahydro-(2,3-c)-thieno-1-pyridinyl)-propyl]-2,3-dihydrobenzofuran], in assay [1], the IC50 was found to be 9 µM.
Same read-out and setting: as for `c1ccc(C2(CCCN3CCOCC3)COc3ccccc32)cc1` (centres unmarked) [Example 15, 3-phenyl-3-[3-(4-morpholinyl)-propyl]-2,3-dihydrobenzofuran], the figure is 50 µM.
The same measure, in the same setting: as for `COc1cccc(N2CCN(CCCC3(c4ccccc4)COc4ccccc43)CC2)c1` (centres unmarked) [Example 16, 3-phenyl-3-[3-(4-(3-methoxyphenyl)-1-piperazinyl)-propyl]-2,3-dihydrobenzofuran], the figure is 9 µM.
